Reference: patent publication US7794994B2 (Kemeta, LLC, priority 2001, dated 2010)
Read-outs that look alike come from different tables or passages of the source.

How the values were obtained:
[1] = test system: secondary alcohol dehydrogenase from R. rhodochrous PNKb1; conditions: R. rhodochrous PNKb1 enzyme; cited from earlier work
[2] = target: T1, acetone carboxylase coupled to β-hydroxybutyrate dehydrogenase (Xanthobacter versatilis, UniProt Q8RM03+Q8RM04); assay: Acetone carboxylase coupled to NADH oxidation spectrophotometric assay; format: biochemical, X. autotrophicus strain Py2; conditions: for activity as substrate and inhibition of acetone carboxylation activity: alternative compounds in coupled enzyme system
T1 construct: host or cells: X. autotrophicus strain Py2 (native organism; enzyme obtained from Prof; S. A. Ensign / purified as previously published)
T1 sequence (Q8RM03 1-776): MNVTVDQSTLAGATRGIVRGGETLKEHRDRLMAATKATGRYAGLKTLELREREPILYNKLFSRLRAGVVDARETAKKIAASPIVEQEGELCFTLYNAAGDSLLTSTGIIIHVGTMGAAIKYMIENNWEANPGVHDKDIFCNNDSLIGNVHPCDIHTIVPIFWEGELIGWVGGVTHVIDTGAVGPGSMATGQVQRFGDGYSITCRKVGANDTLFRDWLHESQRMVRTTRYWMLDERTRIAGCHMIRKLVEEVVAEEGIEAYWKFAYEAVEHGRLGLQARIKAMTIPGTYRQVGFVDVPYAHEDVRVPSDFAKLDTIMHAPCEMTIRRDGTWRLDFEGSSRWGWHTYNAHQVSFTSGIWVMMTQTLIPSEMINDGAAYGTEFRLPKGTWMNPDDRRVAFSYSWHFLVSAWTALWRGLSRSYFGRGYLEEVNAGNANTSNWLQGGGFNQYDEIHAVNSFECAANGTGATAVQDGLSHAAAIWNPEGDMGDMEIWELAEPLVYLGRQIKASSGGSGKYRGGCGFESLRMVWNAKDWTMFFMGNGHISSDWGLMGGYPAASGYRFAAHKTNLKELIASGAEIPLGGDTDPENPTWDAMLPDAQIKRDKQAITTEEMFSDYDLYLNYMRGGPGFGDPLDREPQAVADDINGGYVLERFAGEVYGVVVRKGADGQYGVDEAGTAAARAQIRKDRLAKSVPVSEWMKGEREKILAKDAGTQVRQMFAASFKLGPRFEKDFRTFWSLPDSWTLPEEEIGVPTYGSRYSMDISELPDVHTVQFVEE
T1 sequence (Q8RM04 1-717): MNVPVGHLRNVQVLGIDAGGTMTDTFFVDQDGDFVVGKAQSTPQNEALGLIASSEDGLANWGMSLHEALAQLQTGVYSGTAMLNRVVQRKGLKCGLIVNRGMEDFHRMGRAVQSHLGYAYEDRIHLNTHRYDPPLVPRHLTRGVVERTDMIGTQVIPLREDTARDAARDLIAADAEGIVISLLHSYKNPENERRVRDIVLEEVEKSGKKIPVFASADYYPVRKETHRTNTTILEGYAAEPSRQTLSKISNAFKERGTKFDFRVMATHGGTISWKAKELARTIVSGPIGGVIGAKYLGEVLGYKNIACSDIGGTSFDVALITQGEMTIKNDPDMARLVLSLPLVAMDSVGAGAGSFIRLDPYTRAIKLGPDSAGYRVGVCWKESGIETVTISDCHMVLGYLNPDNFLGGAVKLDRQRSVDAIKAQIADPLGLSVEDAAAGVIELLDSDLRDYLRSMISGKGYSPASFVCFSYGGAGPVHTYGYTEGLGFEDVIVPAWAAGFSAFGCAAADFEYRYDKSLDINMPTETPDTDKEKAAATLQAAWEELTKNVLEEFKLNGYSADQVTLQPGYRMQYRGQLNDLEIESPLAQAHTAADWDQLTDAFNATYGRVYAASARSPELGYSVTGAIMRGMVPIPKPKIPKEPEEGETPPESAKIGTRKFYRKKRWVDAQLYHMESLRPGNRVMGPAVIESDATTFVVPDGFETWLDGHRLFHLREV
T1 sequence (Q8RM02 2-168 partner limits assumed): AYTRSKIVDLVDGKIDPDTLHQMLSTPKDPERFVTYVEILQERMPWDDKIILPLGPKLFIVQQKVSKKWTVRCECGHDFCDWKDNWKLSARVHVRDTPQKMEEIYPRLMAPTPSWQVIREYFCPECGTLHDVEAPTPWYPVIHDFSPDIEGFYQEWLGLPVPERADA
Description: Assays were performed in 2 mL (1 cm path length) quartz cuvettes that had been modified by fusing a serum bottle-style quartz top (7×13 mm at mouth), allowing the cuvettes to be sealed with a red rubber serum stopper. […] The addition of […] (3 U) and NADH (0.2 mM) allowed acetoacetate formation to be coupled to the oxidation of NADH. […] The reaction was monitored by measuring the decrease in absorbance at 340 nm (∈340 of 6.22 mM^−·cm^−1 for NADH) over time in an Agilent Technologies (Palo Alto, Calif.) model 8453 UV-Visible Spectroscopy System containing a thermostat-controlled cell holder at 30° C.

[3] = test system: S-ADH from M. vaccae JOB-5; assay: S-ADH spectrophotometric assay, propane-grown M. vaccae JOB-5; format: biochemical, Mycobacterium vaccae strain JOB-5; conditions: for Relative S-ADH Activity (%) JOB 5, alcohol oxidation: alcohol oxidation rates, pH 7.6, 2.5 mM substrate, 0.2 mM NAD+, 2-propanol = 100, NA = no activity detected; for Relative S-ADH Activity (%) JOB 5, ketone reduction: ketone reduction rates, pH 6.2, 2.5 mM substrate, 0.2 mM NADH, acetone = 100
Description: Assays were performed in 2 mL quartz cuvettes and contained NAD(H) (0.2 mM), potassium phosphate buffer (25 mM), and a source of enzyme (cell-free extracts, column fractions, or purified enzyme) in a total reaction volume of 1 mL at pH 6.2 ([…]) at 30° C. Assays were pre-incubated for 1.5 min. at 30° C. with all assay components except substrate. Assays were initiated by addition of substrate (2.5 mM) and monitored over time by measuring the change in absorbance at 340 nm (∈340 of 6.22 mM^−1·cm^−1 for NADH).

[4] = test system: S-ADH from Pseudomonas species 6307; conditions: cited from earlier work
[5] = test system: acetone carboxylase from Rhodobacter capsulatus strain B10; conditions: cited from earlier work
[6] = as reported by NIST; cited from earlier work
[7] = target: T2, acetone carboxylase from X. autotrophicus strain Py2 (Xanthobacter versatilis, UniProt Q8RM03+Q8RM04); conditions: cited from earlier work
T2 sequence (Q8RM03 1-776): T1 sequence (Q8RM03 1-776)
T2 sequence (Q8RM04 1-717): T1 sequence (Q8RM04 1-717)
T2 sequence (Q8RM02 2-168 partner limits assumed): T1 sequence (Q8RM02 2-168 partner limits assumed)

Structure (SMILES)	Km [1]	activity as substrate and inhibition of acetone carboxylation activity [2]	Relative S-ADH Activity (%) JOB 5, alcohol oxidation [3]	Relative S-ADH Activity (%) JOB 5, ketone reduction [3]	also measured
CCCO [1-Propanol]	18 mM	not active nor did they inhibit acetone carboxylation activity	9%	–	–
CCO [Ethanol]	–	–	–	–	effect on rate of NADH oxidation (inhibition) ([2]; addition of ethanol (10 mM)): no decrease in the rate was observed; inhibition by ethanol ([4]; in the presence of 10 mM ethanol): 0%; inhibition by ethanol ([4]; in the presence of 100 mM ethanol): 30%
CC(C)O [2-Propanol]	12 mM	not active nor did they inhibit acetone carboxylation activity	100%	–	–
CC(C)=O [Acetone, acetone]	–	–	–	100%	Km [5]: 0.0082 mM; Vmax [5]: 0.291 μmol acetone consumed·min^−1mg^−1 protein; Henry's Law constant [6]: 24 M·atm^−1; Vmax [7]: 0.206 μmol acetone consumed·min^−1·mg^−1 protein; Km ([7]; read-out: apparent Km): 0.0078 mM
CCC(C)O (centres unmarked) [2-Butanol]	–	not active nor did they inhibit acetone carboxylation activity	130%	–	–
CCC(C)=O [2-Butanone]	–	–	–	213%	carboxylation rate relative to that of acetone [7]: 40%; rate relative to acetone using the coupled enzyme system [2]: 3 to 4%
